ChEMBL document CHEMBL4308841, “Synthesis, in vitro antiproliferative activity, and kinase inhibitory effects of pyrazole-containing diarylureas and diarylamides” (Eur J Med Chem, 2018)

Experiments:
OVCAR-8 = assay: Growth inhibition of human OVCAR8 cells incubated for 48 hrs by sulforhodamine B assay; assay type: functional, cell-based; conditions: OVCAR-8, 48 h
ACHN [1] = assay: Growth inhibition of human ACHN cells assessed as cell growth at 0.1 uM incubated for 48 hrs by sulforhodamine B assay relative to control; assay type: functional; conditions: read-out: Activity
MDA-MB-435 = assay: Growth inhibition of human MDA-MB-435 cells assessed as cell growth at 1 uM incubated for 48 hrs by sulforhodamine B assay relative to control; assay type: functional; conditions: MDA-MB-435, 48 h, read-out: Activity
SF-268 = assay: Growth inhibition of human SF268 cells assessed as cell growth at 0.01 uM incubated for 48 hrs by sulforhodamine B assay relative to control; assay type: functional; conditions: SF-268, 48 h, read-out: Activity
RPMI-8226 [2] = assay: Growth inhibition of human RPMI8226 cells assessed as cell growth at 0.01 uM incubated for 48 hrs by sulforhodamine B assay relative to control; assay type: functional; conditions: RPMI-8226, 48 h, read-out: Activity
ACHN [3] = assay: Growth inhibition of human ACHN cells assessed as cell growth at 1 uM incubated for 48 hrs by sulforhodamine B assay relative to control; assay type: functional; conditions: read-out: Activity
NCI-H460 [4] = assay: Growth inhibition of human NCI-H460 cells assessed as cell growth at 100 uM incubated for 48 hrs by sulforhodamine B assay relative to control; assay type: functional; conditions: NCI-H460, 48 h, read-out: Activity
NCI-H322M [5] = assay: Growth inhibition of human NCI-H322M cells incubated for 48 hrs by sulforhodamine B assay; assay type: functional, cell-based
MCF7 [6] = assay: Growth inhibition of human MCF7 cells assessed as cell growth at 0.1 uM incubated for 48 hrs by sulforhodamine B assay relative to control; assay type: functional; conditions: MCF7, 48 h, read-out: Activity
786-0 = assay: Growth inhibition of human 786-0 cells assessed as cell growth at 100 uM incubated for 48 hrs by sulforhodamine B assay relative to control; assay type: functional; conditions: 786-0, 48 h, read-out: Activity
HCT-116 = assay: Growth inhibition of human HCT116 cells assessed as cell growth at 1 uM incubated for 48 hrs by sulforhodamine B assay relative to control; assay type: functional; conditions: HCT-116, 48 h, read-out: Activity
HCT-15 = assay: Growth inhibition of human HCT15 cells assessed as cell growth at 0.01 uM incubated for 48 hrs by sulforhodamine B assay relative to control; assay type: functional; conditions: HCT-15, 48 h, read-out: Activity
HOP-62 = assay: Growth inhibition of human HOP62 cells assessed as cell growth at 0.1 uM incubated for 48 hrs by sulforhodamine B assay relative to control; assay type: functional; conditions: HOP-62, 48 h, read-out: Activity
CCRF-CEM = assay: Growth inhibition of human CCRF-CEM cells assessed as cell growth at 0.1 uM incubated for 48 hrs by sulforhodamine B assay relative to control; assay type: functional; conditions: read-out: Activity
RPMI-8226 [7] = assay: Growth inhibition of human RPMI8226 cells incubated for 48 hrs by sulforhodamine B assay; assay type: functional, cell-based; conditions: RPMI-8226, 48 h
MCF7 [8] = assay: Growth inhibition of human MCF7 cells assessed as cell growth at 100 uM incubated for 48 hrs by sulforhodamine B assay relative to control; assay type: functional; conditions: MCF7, 48 h, read-out: Activity
HCC 2998 = assay: Growth inhibition of human HCC2998 cells assessed as cell growth at 0.01 uM incubated for 48 hrs by sulforhodamine B assay relative to control; assay type: functional; conditions: HCC 2998, 48 h, read-out: Activity
NCI-H322M [9] = assay: Growth inhibition of human NCI-H322M cells assessed as cell growth at 1 uM incubated for 48 hrs by sulforhodamine B assay relative to control; assay type: functional; conditions: read-out: Activity
NCI-H460 [10] = assay: Growth inhibition of human NCI-H460 cells assessed as cell growth at 1 uM incubated for 48 hrs by sulforhodamine B assay relative to control; assay type: functional; conditions: NCI-H460, 48 h, read-out: Activity
NCI-H460 [11] = assay: Growth inhibition of human NCI-H460 cells assessed as cell growth at 0.01 uM incubated for 48 hrs by sulforhodamine B assay relative to control; assay type: functional; conditions: NCI-H460, 48 h, read-out: Activity
NCI-H522 = assay: Growth inhibition of human NCI-H522 cells assessed as cell growth at 1 uM incubated for 48 hrs by sulforhodamine B assay relative to control; assay type: functional; conditions: NCI-H522, 48 h, read-out: Activity
Malme-3M = assay: Growth inhibition of human MALME-3M cells incubated for 48 hrs by sulforhodamine B assay; assay type: functional, cell-based
CAKI-1 [12] = assay: Growth inhibition of human Caki1 cells incubated for 48 hrs by sulforhodamine B assay; assay type: functional, cell-based; conditions: CAKI-1, 48 h
SF-295 = assay: Growth inhibition of human SF295 cells incubated for 48 hrs by sulforhodamine B assay; assay type: functional, cell-based; conditions: SF-295, 48 h
MDA-MB-231 = assay: Growth inhibition of human MDA-MB-231 cells assessed as cell growth at 1 uM incubated for 48 hrs by sulforhodamine B assay relative to control; assay type: functional; conditions: MDA-MB-231, 48 h, read-out: Activity
UO-31 = assay: Growth inhibition of human UO31 cells assessed as cell growth at 100 uM incubated for 48 hrs by sulforhodamine B assay relative to control; assay type: functional; conditions: UO-31, 48 h, read-out: Activity
CAKI-1 [13] = assay: Growth inhibition of human Caki1 cells assessed as cell growth at 100 uM incubated for 48 hrs by sulforhodamine B assay relative to control; assay type: functional; conditions: CAKI-1, 48 h, read-out: Activity
[14] = read-out: LC50 (the source's name)
[15] = read-out: pLC50 (the source's name) (converted)

COc1cc(Cl)cc(-c2nn(-c3cccc(NC(=O)Nc4ccc(Cl)c(Cl)c4)c3)cc2-c2ccncc2)c1
GI50 (OVCAR-8; read-out: GI50): 2300 nM
CC50 (OVCAR-8; [14]): > 100 µM
TGI (OVCAR-8; read-out: TGI): 11.2 µM
GI50 (OVCAR-8; read-out: pGI50 (converted)): 2290 nM
CC50 (OVCAR-8; [15]): > 100 µM
TGI (OVCAR-8; read-out: pTGI (converted)): 11.2 µM
growth at 0.1 µM (ACHN [1]): 96%
growth at 1 µM (MDA-MB-435): 85%
growth at 0.01 µM (SF-268): 95%
growth at 0.01 µM (RPMI-8226 [2]): 99%
growth at 1 µM (ACHN [3]): 91%
growth at 100 µM (NCI-H460 [4]): -8%
GI50 (NCI-H322M [5]; read-out: GI50): 3.26 µM
CC50 (NCI-H322M [5]; [14]): > 100 µM
TGI (NCI-H322M [5]; read-out: TGI): > 100 µM
GI50 (NCI-H322M [5]; read-out: pGI50 (converted)): 3.31 µM
CC50 (NCI-H322M [5]; [15]): > 100 µM
TGI (NCI-H322M [5]; read-out: pTGI (converted)): > 100 µM
growth at 0.1 µM (MCF7 [6]): 94%
growth at 100 µM (786-0): -46%
growth at 1 µM (HCT-116): 71%
growth at 0.01 µM (HCT-15): 93%
growth at 0.1 µM (HOP-62): 94%
growth at 0.1 µM (CCRF-CEM): 97%
IC50 (RPMI-8226 [7]): 650 nM
GI50 (RPMI-8226 [7]; read-out: GI50): 652 nM
CC50 (RPMI-8226 [7]; [14]): > 100 µM
TGI (RPMI-8226 [7]; read-out: TGI): 33.7 µM
CC50 (RPMI-8226 [7]; [15]): > 100 µM
growth at 100 µM (MCF7 [8]): -13%
growth at 0.01 µM (HCC 2998): 93%
growth at 1 µM (NCI-H322M [9]): 88%
growth at 1 µM (NCI-H460 [10]): 77%
growth at 0.01 µM (NCI-H460 [11]): 100%
growth at 1 µM (NCI-H522): 60%
GI50 (Malme-3M; read-out: GI50): 2060 nM
CC50 (Malme-3M; [14]): > 100 µM
TGI (Malme-3M; read-out: TGI): 75.5 µM
GI50 (Malme-3M; read-out: pGI50 (converted)): 2040 nM
CC50 (Malme-3M; [15]): > 100 µM
TGI (Malme-3M; read-out: pTGI (converted)): 7.94 µM
GI50 (CAKI-1 [12]; read-out: GI50): 2380 nM
CC50 (CAKI-1 [12]; [14]): > 100 µM
TGI (CAKI-1 [12]; read-out: TGI): 15.7 µM
GI50 (CAKI-1 [12]; read-out: pGI50 (converted)): 2400 nM
CC50 (CAKI-1 [12]; [15]): > 100 µM
TGI (CAKI-1 [12]; read-out: pTGI (converted)): 16.6 µM
GI50 (SF-295; read-out: GI50): 1370 nM
CC50 (SF-295; [14]): > 100 µM
TGI (SF-295; read-out: TGI): 72.1 µM
GI50 (SF-295; read-out: pGI50 (converted)): 1780 nM
CC50 (SF-295; [15]): > 100 µM
TGI (SF-295; read-out: pTGI (converted)): 7.24 µM
growth at 1 µM (MDA-MB-231): 85%
growth at 100 µM (UO-31): -10%
growth at 100 µM (CAKI-1 [13]): -8%
